Results published in US12336981B2, “Compounds and compositions for the inhibition of NAMPT” (Valo Health, Inc., priority 2010, dated 2025).
Where two headings read alike, the source gives them in different places.

Columns and labels:
NAMPT = target: T1, NAMPT (Homo sapiens, UniProt P43490); test: Biochemical inhibition assay: NAMPT enzymatic reaction, NMN quantified by mass spectrometry; details: read-out: Biochem IC50
T1 construct: His tag; host or cells: E. coli
Outline: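 Inhibition of E. coli-expressed His-tagged human NAMPT, measured as NMN formation by mass spectrometry after a 30 min room-temperature reaction containing 1 μM NAM, 100 μM PRPP and 2.5 mM ATP.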

A2780 cells = test: In-vitro cell proliferation assay (SRB), A2780 cells; format: cell-based; details: Homo sapiens, A2780, 72 h, A2780 cells, 72 hours, read-out: A2780 IC50
Outline: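 Viable cells measured by SRB staining after 6% TCA fixation, absorbance 570 nm. Media-only background subtracted; % inhibition derived at two compound concentrations.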

T1 sequence (P43490 whole entry): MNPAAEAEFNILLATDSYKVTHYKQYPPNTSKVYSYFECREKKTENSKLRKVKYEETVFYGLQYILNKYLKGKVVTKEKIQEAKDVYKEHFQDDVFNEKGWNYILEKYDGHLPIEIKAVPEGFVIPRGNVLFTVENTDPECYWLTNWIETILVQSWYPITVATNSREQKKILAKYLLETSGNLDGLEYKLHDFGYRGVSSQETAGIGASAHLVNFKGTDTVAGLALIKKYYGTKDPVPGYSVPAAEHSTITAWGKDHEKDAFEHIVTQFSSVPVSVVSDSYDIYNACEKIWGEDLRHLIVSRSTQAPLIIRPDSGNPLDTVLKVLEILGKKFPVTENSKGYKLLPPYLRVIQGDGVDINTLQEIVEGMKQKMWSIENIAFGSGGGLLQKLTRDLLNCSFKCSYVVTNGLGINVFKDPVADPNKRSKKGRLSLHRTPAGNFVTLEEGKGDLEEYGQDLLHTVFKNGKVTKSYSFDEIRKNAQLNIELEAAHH

| SMILES | IC50 (NAMPT; NAMPT enzymatic assay) [nM] | IC50 (A2780 cells; SRB) [nM] | IC50 (NAMPT; NAMPT enzymatic reaction) [nM] | IC50 (A2780 cells; SRB assay) [nM] |
| --- | --- | --- | --- | --- |
| CCCn1cc(S(=O)(=O)c2ccc(CNC(=O)c3ccc4nccn4c3)cc2)cn1 [N-{[4-(1-propyl-1H-pyrazole-4-sulfonyl)phenyl]methyl}imidazo[1,2-a]pyridine-6-carboxamide] | 4.9 | 5.2 | – | – |
| CCNC(=O)c1ccc(S(=O)(=O)c2ccc(CNC(=O)c3cnc4[nH]ncc4c3)cc2)cc1 [N-[(4-{[4-(ethylcarbamoyl)benzene]sulfonyl}phenyl)methyl]-1H-pyrazolo[3,4-b]pyridine-5-carboxamide] | 103 | 96.8 | – | – |
| COc1ccc(C(C)(C)C)cc1S(=O)(=O)c1ccc(CNC(=O)c2cc3ccncc3s2)cc1 [N-({4-[(5-tert-butyl-2-methoxybenzene)sulfonyl]phenyl}methyl)thieno[2,3-c]pyridine-2-carboxamide] | – | – | 15 | 4.6 |
| Cc1c(F)cccc1S(=O)(=O)c1ccc(CNC(=O)c2cnc3[nH]ncc3c2)cc1 [N-({4-[(3-fluoro-2-methylbenzene)sulfonyl]phenyl}methyl)-1H-pyrazolo[3,4-b]pyridine-5-carboxamide] | – | 71.8 | 46.9 | – |
| COCc1cccc(S(=O)(=O)c2ccc(CNC(=O)c3cc4cnccc4[nH]3)cc2)c1 [N-[(4-{[3-(methoxymethyl)benzene]sulfonyl}phenyl)methyl]-1H-pyrrolo[3,2-c]pyridine-2-carboxamide] | 20.2 | 12.8 | – | – |
| O=C(NCc1ccc(S(=O)(=O)c2cnc3ccccc3c2)cc1)c1cnc2[nH]ncc2c1 [N-{[4-(quinoline-3-sulfonyl)phenyl]methyl}-1H-pyrazolo[3,4-b]pyridine-5-carboxamide] | 5.2 | 4.4 | – | – |
| Cc1cc(C)c(S(=O)(=O)c2ccc(CNC(=O)c3cc4cnccc4[nH]3)cc2)c(C)c1 [N-({4-[(2,4,6-trimethylbenzene)sulfonyl]phenyl}methyl)-1H-pyrrolo[3,2-c]pyridine-2-carboxamide] | 76 | 46 | – | – |
| O=C(NCc1ccc(S(=O)(=O)c2ccccc2CN2CCOCC2)cc1)c1cc2ccncc2s1 [N-[(4-{[2-(morpholin-4-ylmethyl)benzene]sulfonyl}phenyl)methyl]thieno[2,3-c]pyridine-2-carboxamide] | – | – | 13 | 3.6 |
| Cn1ncc2cccc(S(=O)(=O)c3ccc(CNC(=O)c4cnc5nccn5c4)cc3)c21 [N-{[4-(1-methyl-1H-indazole-7-sulfonyl)phenyl]methyl}imidazo[1,2-a]pyrimidine-6-carboxamide] | 23.3 | 100 to 1000 | – | – |
| O=C(NCc1ccc(S(=O)(=O)c2cncc(F)c2)cc1)c1cc2cnccc2[nH]1 [N-{[4-(5-fluoropyridine-3-sulfonyl)phenyl]methyl}-1H-pyrrolo[3,2-c]pyridine-2-carboxamide] | 71.3 | 13.6 | – | – |
| O=C(NCc1ccc(S(=O)(=O)c2cccc(C(F)(F)F)c2)cc1)c1cc2cnccc2[nH]1 [N-[(4-{[3-(trifluoromethyl)benzene]sulfonyl}phenyl)methyl]-1H-pyrrolo[3,2-c]pyridine-2-carboxamide] | – | – | 9 | 3 |
| O=C(NCc1ccc(S(=O)(=O)c2ccccc2OC(F)(F)F)cc1)c1cc2ccncc2s1 [N-[(4-{[2-(trifluoromethoxy)benzene]sulfonyl}phenyl)methyl]thieno[2,3-c]pyridine-2-carboxamide] | – | – | 4 | 2.8 |
| O=C(NCc1ccc(S(=O)(=O)c2cccc(-c3ccccc3)c2)cc1)c1cc2ccncc2o1 [N-({4-[(3-phenylbenzene)sulfonyl]phenyl}methyl)furo[2,3-c]pyridine-2-carboxamide] | – | 23.4 | 13.7 | – |
| O=C(NCc1ccc(S(=O)(=O)c2ccc(C(F)(F)F)cc2C(F)(F)F)cc1)c1cnc2[nH]ncc2c1 [N-[(4-{[2,4-bis(trifluoromethyl)benzene]sulfonyl}phenyl)methyl]-1H-pyrazolo[3,4-b]pyridine-5-carboxamide] | 81.6 | 56.2 | – | – |
| Cn1ncc2ccc(S(=O)(=O)c3ccc(CNC(=O)c4cc5ccncc5o4)cc3)cc21 [N-{[4-(1-methyl-1H-indazole-6-sulfonyl)phenyl]methyl}furo[2,3-c]pyridine-2-carboxamide] | 4.7 | 3.4 | – | – |
| COc1ccc(Cl)c(S(=O)(=O)c2ccc(CNC(=O)c3cnc4[nH]ncc4c3)cc2)c1 [N-({4-[(2-chloro-5-methoxybenzene)sulfonyl]phenyl}methyl)-1H-pyrazolo[3,4-b]pyridine-5-carboxamide] | – | 66.8 | 24.7 | – |
| Cc1nc(S(=O)(=O)c2ccc(CNC(=O)c3cnc4nccn4c3)cc2)cs1 [N-{[4-(2-methyl-1,3-thiazole-4-sulfonyl)phenyl]methyl}imidazo[1,2-a]pyrimidine-6-carboxamide] | 28.6 | 1000 to 10000 | – | – |
| O=C(NCc1ccc(S(=O)(=O)c2cccc(O)c2)cc1)c1ccc2nccn2c1 | – | 7 | 5 | – |
| COc1ccc(C(C)(C)C)cc1S(=O)(=O)c1ccc(CNC(=O)c2cnc3[nH]ncc3c2)cc1 | 45.6 | 21.6 | – | – |
| O=C(NCc1ccc(S(=O)(=O)c2ccccc2)cc1)N1CCc2[nH]ncc2C1 [N-{[4-(benzenesulfonyl)phenyl]methyl}-1H,4H,5H,6H,7H-pyrazolo[4,3-c]pyridine-5-carboxamide] | – | – | > 2000 | > 2000 |

| SMILES | IC50 (NAMPT; NAMPT enzymatic assay) [nM] | IC50 (A2780 cells; SRB) [nM] | IC50 (NAMPT; NAMPT enzymatic reaction) [nM] | IC50 (A2780 cells; SRB assay) [nM] |
| --- | --- | --- | --- | --- |
| CN(C)C(=O)c1ccc(S(=O)(=O)c2ccc(CNC(=O)c3cc4cnccc4[nH]3)cc2)cc1 [N-[(4-{[4-(dimethylcarbamoyl)benzene]sulfonyl}phenyl)methyl]-1H-pyrrolo[3,2-c]pyridine-2-carboxamide] | – | – | 27 | 14 |
| O=C(NCc1ccc(S(=O)(=O)c2ccc(Cl)c(F)c2)cc1)c1cnc2nccn2c1 | – | 8.9 | 1.9 | – |
| CCOc1ccc(S(=O)(=O)c2ccc(CNC(=O)c3ccc4nccn4c3)cc2)cc1F | – | 1.8 | 12.7 | – |
| CCOCc1ccc(S(=O)(=O)c2ccc(CNC(=O)c3cc4cnccc4[nH]3)cc2)cc1 | 22.5 | 6.8 | – | – |
| Cc1ccc(S(=O)(=O)c2ccc(CNC(=O)c3cc4ccncc4s3)cc2)cn1 [N-{[4-(6-methylpyridine-3-sulfonyl)phenyl]methyl}thieno[2,3-c]pyridine-2-carboxamide] | 22 | 6.3 | – | – |
| COc1cccc(S(=O)(=O)c2ccc(CNC(=O)c3cc4cnccc4[nH]3)cc2)c1F [N-({4-[(2-fluoro-3-methoxybenzene)sulfonyl]phenyl}methyl)-1H-pyrrolo[3,2-c]pyridine-2-carboxamide] | – | – | 10 | 7 |
| O=C(NCc1ccc(S(=O)(=O)c2ccc(OCC(F)(F)F)c(F)c2)cc1)c1cc2ccncc2o1 | 6.9 | 23.8 | – | – |
| CN(C)c1ncc(S(=O)(=O)c2ccc(CNC(=O)c3cnc4[nH]ncc4c3)cc2)cn1 [N-({4-[2-(dimethylamino)pyrimidine-5-sulfonyl]phenyl}methyl)-1H-pyrazolo[3,4-b]pyridine-5-carboxamide] | 7.9 | 5.9 | – | – |
| O=C(NCc1ccc(S(=O)(=O)c2cnn(-c3cccc(Cl)c3)c2)cc1)c1cnc2nccn2c1 [N-({4-[1-(3-chlorophenyl)-1H-pyrazole-4-sulfonyl]phenyl}methyl)imidazo[1,2-a]pyrimidine-6-carboxamide] | 2.2 | 11.5 | – | – |
| CCNC(=O)c1ccc(S(=O)(=O)c2ccc(CNC(=O)c3cc4cnccc4[nH]3)cc2)cc1 | 14.5 | 14.1 | – | – |
| O=C(NCc1ccc(S(=O)(=O)c2cccc(Cl)c2)cc1)c1cc2ccncc2s1 [N-({4-[(3-chlorobenzene)sulfonyl]phenyl}methyl)thieno[2,3-c]pyridine-2-carboxamide] | – | – | 5 | 3 |
| O=C(NCc1ccc(S(=O)(=O)c2ccc(-c3ccccc3)cc2)cc1)c1cc2ccncc2s1 | – | 10.6 | 3 | – |
| Cc1cc(C)n(-c2cccc(S(=O)(=O)c3ccc(CNC(=O)c4cc5cnccc5[nH]4)cc3)c2)n1 | 13.2 | 1.6 | – | – |
| CN(C)Cc1cccc(S(=O)(=O)c2ccc(CNC(=O)c3cnc4nccn4c3)cc2)c1 | 4.4 | 66 | – | – |
| O=C(NCc1ccc(S(=O)(=O)c2cnc3ccc(Cl)cn23)cc1)c1cc2cnccc2[nH]1 [N-[(4-{6-chloroimidazo[1,2-a]pyridine-3-sulfonyl}phenyl)methyl]-1H-pyrrolo[3,2-c]pyridine-2-carboxamide] | 13.2 | 1.4 | – | – |
| COc1cc(C(F)(F)F)ccc1S(=O)(=O)c1ccc(CNC(=O)c2cc3cnccc3[nH]2)cc1 [N-[(4-{[2-methoxy-4-(trifluoromethyl)benzene]sulfonyl}phenyl)methyl]-1H-pyrrolo[3,2-c]pyridine-2-carboxamide] | – | – | 22 | 5 |
| COc1ccccc1S(=O)(=O)c1ccc(CNC(=O)c2cc3ccncc3s2)cc1 [N-({4-[(2-methoxybenzene)sulfonyl]phenyl}methyl)thieno[2,3-c]pyridine-2-carboxamide] | – | – | 7 | 5.3 |
| CC(C)Oc1cc(F)ccc1S(=O)(=O)c1ccc(CNC(=O)c2cc3ccncc3o2)cc1 | 15.6 | 13.9 | – | – |
| CC(C)c1cccc(S(=O)(=O)c2ccc(CNC(=O)c3ccc4nccn4c3)cc2)c1 [N-[(4-{[3-(propan-2-yl)benzene]sulfonyl}phenyl)methyl]imidazo[1,2-a]pyridine-6-carboxamide] | 12.4 | 3.49 | – | – |
| O=C(NCc1ccc(S(=O)(=O)c2ccc3ncccc3c2)cc1)c1ccc2nccn2c1 [N-{[4-(quinoline-6-sulfonyl)phenyl]methyl}imidazo[1,2-a]pyridine-6-carboxamide] | 5.16 | 0.83 | – | – |
